Key:
Assay type in all cases: organism-based
[1] = system: Mus musculus; assay: Toxicity in ip dosed mouse; conditions: in vivo
[2] = system: Mus musculus; assay: Toxicity in ip dosed mouse assessed as transient hunching up to 2000 ug/kg; conditions: in vivo, 2 mg/kg
[3] = system: Mus musculus; assay: Toxicity in ip dosed mouse assessed as transient lethargy up to 2000 ug/kg; conditions: in vivo, 2 mg/kg

Row | SMILES | LD50 [1] | Activity [2] | Activity [3]
1 | C=C1CCCC2=NC[C@H](C)CC[C@@]23CCC([C@@H]2CC(C)C(=O)O2)=C(C)[C@@H]3/C=C(\C)[C@@H](O)C[C@H]2O[C@]3(CC[C@@]4(O[C@@H](CC[C@@]4(C)O)C1)O3)C[C@H]2C (some centres not stated) [SPIROLIDE B] | 6.9 µg/kg | – | –
2 | C=C1CCCC2=NC[C@H](C)[C@@H](C)C[C@@]23CCC([C@@H]2C=C(C)C(=O)O2)=C(C)[C@@H]3/C=C(\C)[C@@H](O)C[C@H]2O[C@]3(CC[C@@]4(O[C@@H](CC[C@@]4(C)O)C1)O3)C[C@H]2C [SPIROLIDE C] | 6.9 µg/kg | – | –
3 | C=C1CCCC2=NC[C@H](C)CC[C@@]23CCC([C@@H]2C=C(C)C(=O)O2)=C(C)[C@@H]3/C=C(\C)[C@@H](O)C[C@H]2O[C@]3(CC[C@@]4(O[C@@H](CC[C@@]4(C)O)C1)O3)C[C@H]2C [SPIROLIDE A] | 6.9 µg/kg | – | –
4 | C=C1CCCC2=NC[C@H](C)[C@@H](C)C[C@@]23CCC([C@@H]2C=C(C)C(=O)O2)=C(C)[C@@H]3/C=C(\C)[C@@H](O)C[C@@H]2CC[C@@]3(CC[C@@]4(O[C@@H](CC[C@@]4(C)O)C1)O3)O2 | 6.9 µg/kg | – | –
5 | C=C1CCCC2=NC[C@H](C)[C@@H](C)C[C@@]23CCC([C@@H]2C=C(C)C(=O)O2)=C(C)[C@@H]3/C=C(\C)[C@@H](O)C[C@H]2O[C@@]3(C[C@H]2C)O[C@@H](CC[C@@]3(C)O)C1 [Spirolide H] | – | Non-toxic | Non-toxic
6 | C=C1CCCC2=NC[C@H](C)[C@@H](C)C[C@@]23CCC([C@@H]2C=C(C)C(=O)O2)=C(C)[C@@H]3/C=C(\C)CC[C@@H]2CC[C@]3(COC[C@]4(O[C@H]1CC[C@@]4(C)O)[C@@H]3O)O2 | 6.9 µg/kg | – | –

Source: ChEMBL document CHEMBL1152408, “Characterization of a Dispiroketal Spirolide Subclass from Alexandrium ostenfeldii” (J Nat Prod, 2009)
